Results: US5948635A, “Totally Synthetic Affinity Reagents” (University of North Carolina at Chapel Hill, priority 1995, dated 1999)
No end group written: not given here.

What was measured:
calmodulin = calmodulin (Homo sapiens, UniProt P0DP23); assay: Competition with SEQ ID NO 176 peptide binding to calmodulin; conditions: FIG. 20, FIG. 23
Text: To examine where the SEQ ID NO 176 peptide bound the CaM molecule, we attempted to block binding with other peptides that have been previously shown to bind to the central, linker region of CaM (See Persechini and Kretsinger, 1988, J. Cardiovasc. Pharmacol 12:S1-12; Ikura et al., 1992, Cell Calcium 13:391-400; Chapman et al., 1992, Biochemistry 31:12819-25; Meador et al., 1992, Science 257: 1251-1255). It is this region of CaM that binds various proteins to regulate their activity in a Ca^2+ -dependent manner.
If the site responsible for binding of the CaM specific TSARs to CaM were only a five or six residue peptide, then one would have expected to isolate about 10-20 CaM binding TSARs from the TSAR-12 library. However, since only one particular CaM binding TSAR was repeatedly isolated, it appears that the site of interaction between the CaM specific TSAR and CaM is complex, i.e., the site requires more than simply 5 or 6 residues. To illustrate regions of the SEQ ID NO 176 that are involved in binding to CaM, the ability of 4 modified peptides to compete with SEQ ID NO 176 binding for calmodulin were examined. The modified peptides were (a) the N-terminal 13 residues […] SEQ ID NO 185; (b) the C-terminal 13 residues […] SEQ ID NO 186; (c) the SEQ ID NO 176 peptide where, at position 4, W was changed to A--[…] SEQ ID NO. 184; and (d) a peptide having the reverse sequence […] SEQ ID NO. […]

B139 monoclonal antibody [1] = assay: ELISA of control antibody binding to immobilized peptide; design: species or system murine; conditions: peptide coated at 5 μg/ml; FIG. 15
Method: (§1) Peptides, diluted in 10% PBS (Dulbecco's, pH 7.2, Hazelton), were immobilized by adsorption on polyvinylchloride plates. SEQ ID NO 31 (amide form) was diluted in 10% PBS at 0.5, 5, 50 or 500 μg/ml. Control peptide 2 in 10% PBS at the same range of concentrations served as the control. A 50 μl volume of the test or control peptide solution was added to each well and incubated overnight at 4° C. The peptide solution was removed and 10% BSA-PBS was added as blocking solution. […] Bound 7E11-C5 monoclonal antibody was detected with anti-mouse IgG1 -HRP as described above herein.

[2] = system: 7E11-C5 monoclonal antibody; assay: Competitive binding ELISA: inhibition of 7E11-C5 binding to LNCaP cell lysate antigen; design: species or system mouse; conditions: peptides, amide form; FIG. 13
Method: Each well of a polyvinylchloride 96-well ELISA plate (Cooke, Alexandria, Va.) was coated with an LNCAP human prostate carcinoma cell (ATCC # CRL 1740) lysate. Lysates were prepared by harvesting confluent LNCaP cell cultures, resuspending cells in 4 volumes of 1 mM MgCl2 for 5 minutes, mixing with 2 μg of DNase (Boehringer Mannheim, Indianapolis, Ind.) and homogenizing using 40 strokes in a Dounce homogenizer (Wheaton, Millville, N.J.). LNCaP lysate (50 μl per well of a 1:50 dilution in 0.1×PBS [Dulbecco's pH 7.2, JRH, Denver, Pa.]) was air dried overnight at 37° C. onto wells of the ELISA plate. ELISA plates were blocked with 150 μl/well of 1% BSA (Pentex Fraction V, Miles, Kankakee, Ill.) in PBS for 60 minutes at room temperature.
The blank control consisted of blocking solution in the absence of primary antibody. 7E11-C5 monoclonal antibody pre-incubated with buffer without any phage (MAb) was the positive control. The expression vector m663 phage was also employed as a non-specific phage control.
Plates were washed 4 times with 0.05% Tween-20 in PBS. Bound monoclonal antibody 7E11-C5 was detected by: (1) incubating with 50 μl/well of anti-mouse IgG1 -HRP (Fisher Biotech, Orangeburg, N.Y.) diluted to 0.4 ng/ml in 1% BSA-PBS, for 60 minutes at room temperature; (2) washing plates 6 times with 0.05% Tween-20 in PBS; and (3) adding 100 μl/well ABTS substrate [200 μl ABTS, (Boehringer Mannheim), 10 ml citrate buffer (pH 4), 10 μl H2 O2 ]. Optical density of the reactions products was determined by endpoint analysis on a Multiscan plate reader (Molecular Devices, Menlo Park, Calif.). The competitive inhibition (%) was determined by comparing the reactivity of the positive control to the test samples.
(§2) The TSAR-based peptide (SEQ ID NO 31) concentration ranged from 1.75 to 1130 nM. […] Two additional control peptides (amide form) having the following amino acid sequences: RGD-21: NH2 -[…]-CONH2 (SEQ ID NO 32) and CYT-379: NH2 -[…]-CONH2 (SEQ ID NO 33) were also evaluated. Herein these control peptides are referred to as Control Peptide 1 and Control Peptide 2. […] The B139 monoclonal antibody, which is a murine IgG1 monoclonal antibody that reacts with all human epithelial cells, recognizes a different antigen in the LNCaP extract from that recognized by the 7E11-C5 antibody. The control B139 monoclonal antibody was used at a concentration of 9 ng/ml. The results obtained are illustrated in FIG. 13.

B139 monoclonal antibody [3] = assay: Competitive binding ELISA: inhibition of B139 binding to LNCaP extract; design: species or system murine; conditions: B139 9 ng/ml; FIG. 13
Method: as §2

[4] = system: 7E11-C5 monoclonal antibody; assay: ELISA of antibody binding to immobilized peptide; design: species or system mouse; conditions: peptide adsorbed on polyvinylchloride plates, 0.5-500 μg/ml; FIG. 14, 15
Method: as §1

calcineurin = assay: CaM-12.1 phage binding to calcineurin
Method: (§3) The binding properties of the CaM-12.1 TSAR were further examined in several ways. First, the ability of CaM-12.1 phage to bind other calcium-binding proteins was tested. […] Second, the ability of natural calmodulin binding peptides and proteins to compete for binding of the CaM-12.1 phage with CaM was tested. […] Third, the ability of a synthetic non-peptide CaM-antagonist, W7, (#681629; Calbiochem, San Diego, Calif.), was tested for its ability to compete for binding of CaM-12.1 to CaM. […] In summary: (1) CaM-12.1 binds CaM specifically, and not because it is a high-affinity Ca^2 +-binding protein; (2) CaM-12.1 binds CaM at a site partially overlapping or influenced, by the binding sites of CaM-dependentprotein kinase peptide, melittin and W7.

[5] = system: vitamin D calcium-binding protein; assay: CaM-12.1 phage binding to wells coated with vitamin D calcium-binding protein; conditions: ELISA plate wells
Method: as §3

parvalbumin = assay: CaM-12.1 phage binding to wells coated with parvalbumin; conditions: ELISA plate wells
Method: as §3

GAARAQTRLASWK [SEQ ID NO 186, C-terminal 13 residues]
competition with binding of peptide SEQ ID NO 176 to CaM (calmodulin): none of the four peptides were able to compete

PSYYRGDAGPSYYRGDAG-NH2 [Control Peptide 1]
binding of B139 to immobilized peptide (B139 monoclonal antibody [1]): did not bind to either of the tested antibodies | competitive inhibition of 7E11-C5 binding to LNCaP extract by peptide [2]: did not effectively compete | competitive inhibition of B139 binding to LNCaP extract by peptide (B139 monoclonal antibody [3]): neither SEQ ID NO 31 (amide form) nor either of Control Peptide 1 and Control Peptide 2 competitively inhibited the binding | binding of 7E11-C5 to immobilized peptide [4]: did not bind to either of the tested antibodies

STVPRAIEDSLRGGAARAQTRLASWK [SEQ ID NO. 184]
competition with binding of peptide SEQ ID NO 176 to CaM (calmodulin): none of the four peptides were able to compete

VPRWIEDSLRGGAARAQTRLASA [CaM-12.1]
binding to calcineurin (calcineurin): did not bind | binding to vitamin D calcium-binding protein [5]: failed to bind | binding to parvalbumin (parvalbumin): failed to bind
